Read-outs that look alike come from different tables or passages of the source.
Experiments:
[1] = tested on: human dermal fibroblast (HDF) primary cells; assay: H2O2-resistance in primary human dermal fibroblasts; format: cell-based; conditions: for fold induction at 10 µM: Homo sapiens; for Assay 6: H2O2-resistant, at 10 uM, human dermal fibroblast (HDF) primary cells: YES/NO
WI-38 cells [2] = assay: Long-term effects on cell viability (5 days, ATP; morphology, PI imaging); format: cell-based; conditions: 10 μM; for Luminescence signal for ATP measurement, day-1 Average / Luminescence signal for ATP measurement, day-2 Average / Luminescence signal for ATP measurement, day-3 Average / Luminescence signal for ATP measurement, day-4 Average / Luminescence signal for ATP measurement, day-5 Average / viability at 10 µM: Batch 1; for Luminescence signal for ATP measurement, day-1 Average / Luminescence signal for ATP measurement, day-2 Average / Luminescence signal for ATP measurement, day-3 Average / Luminescence signal for ATP measurement, day-4 Average / Luminescence signal for ATP measurement, day-5 Average: n = 6, day-0 luminescence = 320956 ± 24708; for viability at 10 µM: Homo sapiens, WI-38, 120 h, DMSO ctrl = 100.0%, read-out: ATP luminescence by day-5 normalized; for Luminescence signal for ATP measurement, day-5 Average / viability at 10 µM: day-5; for O = Potential toxicity / Q = Potential toxicity: human, 5 days;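 as to Luminescence signal for ATP measurement, day-2 Average: compounds at 10 µM with ATP read daily over 5 days of treatment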;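 as to Luminescence signal for ATP measurement, day-3 Average: compounds at 10 µM with ATP read daily over 5 days of treatment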;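 as to Luminescence signal for ATP measurement, day-4 Average: compounds at 10 µM with ATP read daily over 5 days of treatment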;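 as to Luminescence signal for ATP measurement, day-5 Average: compounds at 10 µM with ATP read daily over 5 days of treatment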
WI-38 cells [3] = assay: Propidium iodide (PI) cell-death imaging upon H2O2 stress; format: cell-based, human; conditions: for Assay 7: H2O2-resistant, at 10 uM, validated by propidium iodide (PI) cell-death imaging: w/H2O2, 3 hrs/4 hrs/5 hrs, YES/NO; for cytotoxicity at 10 µM: Homo sapiens, WI-38
NRF2 = assay: qPCR analysis of NRF2-regulated genes; format: cell-based, human; conditions: for fold induction at 10 µM: Homo sapiens
Summary of the method: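 Expression of HMOX1, NQO1, GCLC and GSTM1 measured by qPCR relative to B2M, PPIA and GAPDH. Cells were WI-38 fibroblasts exposed 24 hrs to 10 μM compound, with RNA and cDNA prepared via Cells-to-Ct. Where stated, cells were first transfected 36 hrs with FOXO3 or NRF2 siRNA at 10 nM.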

[4] = Summary score for characterization of 38 core set hits; conditions: for D = Triple resistant: 2-point score, multiplex resistance (cadmium, MMS, H2O2); for S = Sum of Negative scores: human; for C = H2O2- & Cd-resistant: score, resistance to both H2O2 and cadmium
Summary of the method: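 Each score sums results of individual assays on H2O2-resistance screen hits. Nematode lifespan assays were run in 4 to 6 independent trials and scored up to 2. Key phenotypes such as multiplex resistance, FOXO3/NRF2 activation and mTOR down-regulation were weighted at 2 points, with a deduction for human-cell toxicity.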

[5] = Experiment 1, HDF cells, read-out: Experiment 1, HDF cells (under H2O2 stress treatment), at 10 uM (fold change)
[6] = Experiment 2, HDF cells, read-out: Experiment 2, HDF cells (under H2O2 stress treatment), at 10 uM (fold change)
[7] = H2O2 3 hrs, 10 uM, n = 6, negative control 5.44% ± 0.79%, read-out: Percentage of propidium iodide-positive dead cells (under H2O2 stress treatment), 3 hrs
[8] = pre-treatment at 10 uM, 3.5 hours of H2O2, DMSO control 27.4% ± 6.5%, */**/*** = reduced by one/two/three standard deviations, read-out: Percentage of propidium iodide-positive dead cells (under H2O2 stress treatment), at 10 uM
[9] = 24 h, Assay 12(o), at 10 uM, qPCR, read-out: Induction of NRF2-regulated genes: GCLC normalized fold-change
[10] = 24 h, Assay 12(o), at 10 uM, qPCR, read-out: Induction of NRF2-regulated genes: HMOX1 normalized fold-change
[11] = rounded fold change, WI-38 cells, 10 μM, 24 hrs (RP11 for Gr-1D, RP29 for Gr-4D), read-out: Summary of effects on NRF2-regulated genes: HMOX1
[12] = rounded fold change, WI-38 cells, 10 μM, 24 hrs, read-out: Summary of effects on NRF2-regulated genes: GCLC
[13] = 10 μM, 24 hrs, WI-38 cells, qPCR, normalized to B2M, n = 4, read-out: GCLC expression, normalized fold change (NRF2-regulated gene)
[14] = 10 μM, 24 hrs, WI-38 cells, qPCR, normalized to B2M, n = 4, read-out: HMOX1 expression, normalized fold change (NRF2-regulated gene)
[15] = WI-38 cells, 10 μM, 24 hrs, n=4, qPCR normalized by B2M, read-out: GCLC Normalized fold change
[16] = WI-38 cells, 10 μM, 24 hrs, n=4, qPCR normalized by B2M, read-out: GSTM1 Normalized fold change
[17] = WI-38 cells, 10 μM, 24 hrs, n=4, qPCR normalized by B2M, read-out: HMOX1 Normalized fold change
[18] = WI-38 cells, 10 μM, 24 hrs, n=4, qPCR normalized by B2M, read-out: NQO1 Normalized fold change
[19] = H2O2 4 hrs, 10 uM, n = 6, negative control 16.81% ± 1.42%, read-out: Percentage of propidium iodide-positive dead cells (under H2O2 stress treatment), 4 hrs
[20] = H2O2 5 hrs, 10 uM, n = 6, negative control 22.50% ± 1.53%, read-out: Percentage of propidium iodide-positive dead cells (under H2O2 stress treatment), 5 hrs
[21] = 24 h, Assay 12(o), at 10 uM, qPCR, read-out: Induction of NRF2-regulated genes: NQO1 normalized fold-change
[22] = rounded fold change, WI-38 cells, 10 μM, 24 hrs (RP29 for Gr-4D), read-out: Summary of effects on NRF2-regulated genes: NQO1
[23] = 10 μM, 24 hrs, WI-38 cells, qPCR, normalized to B2M, n = 4, read-out: NQO1 expression, normalized fold change (NRF2-regulated gene)

Compound	fold induction at 10 µM [1, 5]	fold induction at 10 µM [1, 6]	Assay 6: H2O2-resistant, at 10 uM, human dermal fibroblast (HDF) primary cells [1]	Luminescence signal for ATP measurement, day-1 Average (WI-38 cells [2])	Luminescence signal for ATP measurement, day-2 Average (WI-38 cells [2])	Luminescence signal for ATP measurement, day-3 Average (WI-38 cells [2])	O = Potential toxicity (WI-38 cells [2])	Q = Potential toxicity (WI-38 cells [2])	Assay 7: H2O2-resistant, at 10 uM, validated by propidium iodide (PI) cell-death imaging (WI-38 cells [3]; 10 uM)	cytotoxicity at 10 µM (WI-38 cells [3]; [7])	cytotoxicity at 10 µM (WI-38 cells [3]; [8])	F = Potential NRF2 Activation (NRF2; 2-point score)	fold induction at 10 µM (NRF2; [15])	fold induction at 10 µM (NRF2; [16])	fold induction at 10 µM (NRF2; [17])	fold induction at 10 µM (NRF2; [18])	F = Potential NRF2 Activation (NRF2; summary score)	D = Triple resistant [4]	S = Sum of Negative scores [4]	C = H2O2- & Cd-resistant [4]	also measured
COc1ccc(/C=C2\SC(=N)N(c3nccs3)C2=O)cc1 [O21]	140	25.5	YES	460366	542268	557236	1	1	YES	2.05%	7.8%	0	0.512	1.25	3.02	0.836	0	0	2	0	Luminescence signal for ATP measurement, day-4 Average (WI-38 cells [2]): 677875; Luminescence signal for ATP measurement, day-5 Average (WI-38 cells [2]): 550651; viability at 10 µM (WI-38 cells [2]): 53.6%; fold induction at 10 µM (NRF2; [9]): 0.51; fold induction at 10 µM (NRF2; 24 h, Assay 12(o), at 10 uM, qPCR, read-out: Induction of NRF2-regulated genes: GSTM1 normalized fold-change): 1.25; fold induction at 10 µM (NRF2; [10]): 3.02; fold induction at 10 µM (NRF2; [11]): 3.02; fold induction at 10 µM (NRF2; rounded fold change, WI-38 cells, 10 μM, 24 hrs (RP29 for Gr-4D), read-out: Summary of effects on NRF2-regulated genes: GSTM1): 1.25; fold induction at 10 µM (NRF2; [12]): 0.51; fold induction at 10 µM (NRF2; [13]): 0.51; fold induction at 10 µM (NRF2; 10 μM, 24 hrs, WI-38 cells, qPCR, normalized to B2M, n = 4, read-out: GSTM1 expression, normalized fold change (NRF2-regulated gene)): 1.25; fold induction at 10 µM (NRF2; [14]): 3.02
CC1C(=O)C(C)C(c2cc(Cl)ccc2O)NC1c1cc(Cl)ccc1O (stereo not shown) [O6]	285	22.2	YES				0	0	YES	0.8%	16.8%	2	1.06	0.965	3.85	1.62	2	0	0	1	cytotoxicity at 10 µM (WI-38 cells [3]; [19]): 4.92%; cytotoxicity at 10 µM (WI-38 cells [3]; [20]): 9.82%; Potential NRF2 Activation (>=2 target genes induced, by >=1.5-fold) (NRF2; Assay 13(p)): YES; fold induction at 10 µM (NRF2; [10]): 3.85; fold induction at 10 µM (NRF2; [21]): 1.62; fold induction at 10 µM (NRF2; [11]): 3.85; fold induction at 10 µM (NRF2; [22]): 1.62; fold induction at 10 µM (NRF2; 10 μM, 24 hrs, WI-38, read-out: Expression of at least two NRF2 target genes): > 1.5; fold induction at 10 µM (NRF2; [14]): 3.85; fold induction at 10 µM (NRF2; [23]): 1.62
CCCC(=O)Nc1ccc(-c2cn3cccc(C)c3n2)cc1 [O12]	264	49.2	YES	527095	702483	876448	0	0	YES	0.74%	0.4%	0	0.531	1.21	0.821	0.692	0	0	0	1	Luminescence signal for ATP measurement, day-4 Average (WI-38 cells [2]): 1128385; Luminescence signal for ATP measurement, day-5 Average (WI-38 cells [2]): 1117938; viability at 10 µM (WI-38 cells [2]): 109%; cytotoxicity at 10 µM (WI-38 cells [3]; [19]): 0.77%; cytotoxicity at 10 µM (WI-38 cells [3]; [20]): 1.33%; fold induction at 10 µM (NRF2; [9]): 0.54; fold induction at 10 µM (NRF2; [10]): 0.76; fold induction at 10 µM (NRF2; [21]): 0.66; fold induction at 10 µM (NRF2; [11]): 0.82; fold induction at 10 µM (NRF2; [22]): 0.69; fold induction at 10 µM (NRF2; [12]): 0.53; fold induction at 10 µM (NRF2; [13]): 0.53; fold induction at 10 µM (NRF2; [14]): 0.82; fold induction at 10 µM (NRF2; [23]): 0.69
[O-][n+]1onc2c3nsnc3c(Br)cc21 [O17]	3.35	48.5	YES	507143	697351	849445	0	0	YES	0.8%	6.6%	0	1.35	1.12	1.08	1.47	0	0	0	0	Luminescence signal for ATP measurement, day-4 Average (WI-38 cells [2]): 1073975; Luminescence signal for ATP measurement, day-5 Average (WI-38 cells [2]): 1070851; viability at 10 µM (WI-38 cells [2]): 104%; cytotoxicity at 10 µM (WI-38 cells [3]; [19]): 2.83%; Induction of at least two NRF2-regulated genes (HMOX1, NQO1, GCLC, GSTM1) (NRF2; 10 μM, 24 hrs, WI-38): could induce expression of at least two genes; fold induction at 10 µM (NRF2; [9]): 1.36; fold induction at 10 µM (NRF2; [21]): 1.47; fold induction at 10 µM (NRF2; [22]): 1.47; fold induction at 10 µM (NRF2; [12]): 1.36; fold induction at 10 µM (NRF2; [13]): 1.36; fold induction at 10 µM (NRF2; [23]): 1.47

— patent publication US11413278B2, “Compounds and methods for promoting stress resistance” (priority 2015, dated 2022)
